In US20100317073A1, “MOLECULAR APPROACHES FOR THE OPTIMIZATION OF BIOFUEL PRODUCTION” (The Ohio State University Research Foundation, priority 2007, published 2010):

Test system: Chlorella protothecoides
Experiment: Growth of Chlorella protothecoides in glycerol supplemented media: growth and total lipid yield
Type: cell-based
Conditions: glycerol supplemented medium
Description: Note that Chlorella protothecoides growth is enhanced by glycerol; a byproduct of biodiesel.

For OCC(O)CO [glycerol], which increase in growth is on record?
The increase in growth was “at least 10 fold”.

And the total lipid yield?
The total lipid yield was “enhanced”.
